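Compound exposure: 48 hours, 5 concentrations, 96-well plates. TGI is the concentration that stops growth completely.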 Where a SMILES comes first, the peptide text is derived from it. [ ]: non-standard residue; d: D form. The star is where a group is joined. X28 = COC1=CC(=O)N(C(=O)[C@@H](O*)C(C)C)[C@H]1Cc1ccccc1; NMeL = CN[C@@H](CC(C)C)C(=O)O; Cbz = O=C(OCc1ccccc1)*
Experiments:
Experiment in all cases: DTP human tumour cell line panel, 48 h
SK-MEL-28 melanoma = system: SK-MEL-28 melanoma
OVCAR-3 ovarian = system: OVCAR-3 ovarian
SNB-75 CNS = system: SNB-75 CNS
HCC-2998 colon = system: HCC-2998 colon
CCRF-CEM leukemia = system: CCRF-CEM leukemia
786-0 renal = system: 786-0 renal
SNB-19 CNS = system: SNB-19 CNS
HS 578T breast = system: HS 578T breast
UO-31 renal = system: UO-31 renal
NCI-H460 lung = system: NCI-H460 lung

## CC(=N\N=C\c1ccccn1)/C(C)=N/N=C/c1ccccn1
SK-MEL-28 melanoma
  TGI: > 100 µM
OVCAR-3 ovarian
  TGI: > 100 µM
SNB-75 CNS
  TGI: > 100 µM
HCC-2998 colon
  TGI: > 100 µM
CCRF-CEM leukemia
  TGI: > 100 µM
786-0 renal
  TGI: > 100 µM
SNB-19 CNS
  TGI: > 100 µM
HS 578T breast
  TGI: > 100 µM
UO-31 renal
  TGI: > 100 µM
NCI-H460 lung
  TGI: > 100 µM

## COC1=CC(=O)N(C(=O)[C@@H](OC(=O)[C@@H]2CCCN2C(=O)[C@@H]2CCCN2C(=O)[C@H](CC(C)C)N(C)C(=O)[C@@H](NC(=O)[C@@H](NC(=O)OCc2ccccc2)C(C)C)C(C)C)C(C)C)[C@H]1Cc1ccccc1 (Cbz-VV[NMeL]PP-X28)
SK-MEL-28 melanoma
  TGI: > 100 µM
OVCAR-3 ovarian
  TGI: > 100 µM
SNB-75 CNS
  TGI: 9.27 µM
HCC-2998 colon
  TGI: > 100 µM
CCRF-CEM leukemia
  TGI: > 100 µM
786-0 renal
  TGI: > 100 µM
SNB-19 CNS
  TGI: > 100 µM
HS 578T breast
  TGI: > 100 µM
UO-31 renal
  TGI: > 100 µM
NCI-H460 lung
  TGI: > 100 µM

## CN(C)C(=O)CO/N=C1/C(c2c(O)[nH]c3ccccc23)=Nc2ccccc21
SK-MEL-28 melanoma
  TGI: > 100 µM
OVCAR-3 ovarian
  TGI: > 100 µM
SNB-75 CNS
  TGI: 89.8 µM
HCC-2998 colon
  TGI: > 100 µM
CCRF-CEM leukemia
  TGI: > 100 µM
786-0 renal
  TGI: > 100 µM
SNB-19 CNS
  TGI: > 100 µM
HS 578T breast
  TGI: > 100 µM
UO-31 renal
  TGI: > 100 µM
NCI-H460 lung
  TGI: > 100 µM

## O=C(O)C1C2CCC(C2)C1c1ccccc1 (stereo not given)
SK-MEL-28 melanoma
  TGI: > 100 µM
OVCAR-3 ovarian
  TGI: > 100 µM
SNB-75 CNS
  TGI: > 100 µM
HCC-2998 colon
  TGI: > 100 µM
CCRF-CEM leukemia
  TGI: > 100 µM
786-0 renal
  TGI: > 100 µM
SNB-19 CNS
  TGI: > 100 µM
HS 578T breast
  TGI: > 100 µM
UO-31 renal
  TGI: > 100 µM
NCI-H460 lung
  TGI: > 100 µM

## OC1NC2CC3NC(O)C(O)NC3CC2NC1O (stereo not given)
SK-MEL-28 melanoma
  TGI: > 100 µM
OVCAR-3 ovarian
  TGI: > 100 µM
SNB-75 CNS
  TGI: > 100 µM
HCC-2998 colon
  TGI: > 100 µM
CCRF-CEM leukemia
  TGI: > 100 µM
786-0 renal
  TGI: > 100 µM
SNB-19 CNS
  TGI: > 100 µM
HS 578T breast
  TGI: > 100 µM
UO-31 renal
  TGI: > 100 µM
NCI-H460 lung
  TGI: > 100 µM

## Cc1cc2nc(NS(=O)(=O)c3cc(C)c(Cl)cc3S)[nH]c2cc1C
SK-MEL-28 melanoma
  TGI: > 100 µM
OVCAR-3 ovarian
  TGI: > 100 µM
SNB-75 CNS
  TGI: > 100 µM
HCC-2998 colon
  TGI: > 100 µM
CCRF-CEM leukemia
  TGI: 81.8 µM
786-0 renal
  TGI: > 100 µM
SNB-19 CNS
  TGI: > 100 µM
HS 578T breast
  TGI: > 100 µM
UO-31 renal
  TGI: > 100 µM
NCI-H460 lung
  TGI: 43.1 µM

## CCOc1ccc(-n2c(=O)n3c(Nc4ccc(Cl)cc4)nc4c(c(=O)n(C)c(=O)n4C)n3c2=O)cc1
SK-MEL-28 melanoma
  TGI: 65.3 µM
OVCAR-3 ovarian
  TGI: 52.5 µM
SNB-75 CNS
  TGI: 69.1 µM
HCC-2998 colon
  TGI: 34.4 µM
CCRF-CEM leukemia
  TGI: 52.9 µM
786-0 renal
  TGI: > 100 µM
SNB-19 CNS
  TGI: > 100 µM
HS 578T breast
  TGI: > 100 µM
UO-31 renal
  TGI: > 100 µM
NCI-H460 lung
  TGI: 36.1 µM

## CC1(C)OCC(C2OC(=O)C(OCc3ccccc3)=C2OCc2ccccc2)O1 (stereo not given)
SK-MEL-28 melanoma
  TGI: > 100 µM
OVCAR-3 ovarian
  TGI: > 100 µM
SNB-75 CNS
  TGI: > 100 µM
HCC-2998 colon
  TGI: > 100 µM
CCRF-CEM leukemia
  TGI: > 100 µM
786-0 renal
  TGI: > 100 µM
SNB-19 CNS
  TGI: > 100 µM
HS 578T breast
  TGI: > 100 µM
UO-31 renal
  TGI: > 100 µM
NCI-H460 lung
  TGI: > 100 µM

## COc1cc(C(=O)OC2CC(C)=CC[C@@]3(C)CC[C@](O)(C(C)C)C23)ccc1O (stereo not given in full)
SK-MEL-28 melanoma
  TGI: 60.2 µM
OVCAR-3 ovarian
  TGI: 35.5 µM
SNB-75 CNS
  TGI: 33.5 µM
HCC-2998 colon
  TGI: 28.8 µM
CCRF-CEM leukemia
  TGI: 69 µM
786-0 renal
  TGI: 31.3 µM
SNB-19 CNS
  TGI: 35.8 µM
HS 578T breast
  TGI: 40.9 µM
UO-31 renal
  TGI: 30.4 µM
NCI-H460 lung
  TGI: 32.5 µM

## COc1ccc2c(c1)-c1c(c3ccccc3n1CCN1CCOCC1)CC2
SK-MEL-28 melanoma
  TGI: > 100 µM
OVCAR-3 ovarian
  TGI: 56.6 µM
SNB-75 CNS
  TGI: 49 µM
HCC-2998 colon
  TGI: 34.3 µM
CCRF-CEM leukemia
  TGI: 85.8 µM
786-0 renal
  TGI: 54.1 µM
SNB-19 CNS
  TGI: 71.5 µM
HS 578T breast
  TGI: 32.3 µM
UO-31 renal
  TGI: 96.8 µM
NCI-H460 lung
  TGI: 34.2 µM

## Cn1c2cc(Cl)ccc2c2ccc3c(c21)C(=O)C=CC3=O
SK-MEL-28 melanoma
  TGI: 63.5 µM
OVCAR-3 ovarian
  TGI: 17.1 µM
SNB-75 CNS
  TGI: > 100 µM
HCC-2998 colon
  TGI: > 100 µM
CCRF-CEM leukemia
  TGI: 31.4 µM
786-0 renal
  TGI: > 55.9 µM
SNB-19 CNS
  TGI: > 100 µM
HS 578T breast
  TGI: > 100 µM
UO-31 renal
  TGI: > 100 µM
NCI-H460 lung
  TGI: > 100 µM

## O=C(O)[C@H]1NC[C@@H]2ON=C(Br)[C@@H]21
SK-MEL-28 melanoma
  TGI: > 100 µM
OVCAR-3 ovarian
  TGI: > 100 µM
SNB-75 CNS
  TGI: > 100 µM
HCC-2998 colon
  TGI: > 100 µM
CCRF-CEM leukemia
  TGI: > 100 µM
786-0 renal
  TGI: > 100 µM
SNB-19 CNS
  TGI: > 100 µM
HS 578T breast
  TGI: > 100 µM
UO-31 renal
  TGI: > 100 µM
NCI-H460 lung
  TGI: > 100 µM

## COC(=O)C1=C2Nc3ccccc3C23CCN2C(O)C4(CC5CC67CCOC6CCN6CCC8(c9cccc(OC)c9N(C4)C58O)C67)C4OCCC4(C1)C23 (stereo not given)
SK-MEL-28 melanoma
  TGI: > 100 µM
OVCAR-3 ovarian
  TGI: > 100 µM
SNB-75 CNS
  TGI: 68.3 µM
HCC-2998 colon
  TGI: > 100 µM
CCRF-CEM leukemia
  TGI: > 100 µM
786-0 renal
  TGI: 50.5 µM
SNB-19 CNS
  TGI: > 100 µM
HS 578T breast
  TGI: 77.5 µM
UO-31 renal
  TGI: > 100 µM
NCI-H460 lung
  TGI: > 100 µM

## O=C(O)c1ccc(/C=N\N(CCO)C2=NCCN2)cc1
SK-MEL-28 melanoma
  TGI: > 100 µM
OVCAR-3 ovarian
  TGI: > 100 µM
SNB-75 CNS
  TGI: > 100 µM
HCC-2998 colon
  TGI: > 100 µM
CCRF-CEM leukemia
  TGI: > 100 µM
786-0 renal
  TGI: > 100 µM
SNB-19 CNS
  TGI: > 100 µM
HS 578T breast
  TGI: > 100 µM
UO-31 renal
  TGI: > 100 µM
NCI-H460 lung
  TGI: > 100 µM

## COc1ccc(C2c3c(-c4ccccc4)nn(-c4ccccc4)c3Oc3ncn(N)c(=N)c32)cc1OC (stereo not given)
SK-MEL-28 melanoma
  TGI: 4.29 µM
OVCAR-3 ovarian
  TGI: 2.95 µM
SNB-75 CNS
  TGI: 3.92 µM
HCC-2998 colon
  TGI: 2.76 µM
CCRF-CEM leukemia
  TGI: > 100 µM
786-0 renal
  TGI: 3 µM
SNB-19 CNS
  TGI: 19.9 µM
HS 578T breast
  TGI: 4.37 µM
UO-31 renal
  TGI: 3.84 µM
NCI-H460 lung
  TGI: 3.27 µM

From PubChem BioAssay (NCI)
